According to patent US7455855B2, “Delivering substance and drug delivery system using the same” (Santen Pharmaceutical Co., Ltd., priority 2000, dated 2008):
Structures can show the parent of a compound that is named as a salt. Where two headings read alike, the source gives them in different places.

Tests used:
[1] = 3H-labelled, 100 μl/eye into vitreous body, moment method, 1 to 21 days, average of three samples
[2] = Intraocular kinetic tests by fluorophotometry after injection into the vitreous body; format: in vivo, white rabbits; conditions: for half-life: rabbit, other: injection into the vitreous body (intravitreal)
Experimental: Intraocular kinetic tests were conducted by the following methods using the delivering substances A and B containing a fluorescence.
The same procedure as mentioned above was repeated except that fluorescein sodium was used instead of the delivering substances A and B to prepare a 10 μg/ml injection containing fluorescein sodium for comparison.
1) A mixed solution containing an aqueous ketamine hydrochloride solution (50 mg/ml) and an aqueous xylazine hydrochloride (50 mg/ml) in a ratio of 7:3 was administered intramuscularly to white rabbits to anesthetize.
2) A tropicamide (0.5%)/phenylephrine hydrochloride (0.5%) ophthalmic solution was instilled into both eyes to cause mydriasis in the both eyes.
3) The both eyes were anesthetized with an oxybuprocaine hydrochloride (0.5%) ophthalmic solution.
4) Each of the above-mentioned injection was administered to the center of a vitreous body from an ocular pars plana with a syringe equipped with a 30G needle.
5) Intraocular fluorescence intensity was measured with a fluorophotometry apparatus after the administration to the vitreous body at 1, 4, 7, 15, 35 and 56 days. A calibration curves were prepared, changes in concentration in the vitreous body and a retina were determined, and respective half-lives were calculated. The above-mentioned operations 1) and 2) were carried out before the intraocular fluorescence intensity was measured, too.
The numerical values in Tables 1 and 2 are the average of three samples respectively.

For C[C@]12N[C@H](Cc3ccccc31)c1ccccc12 [Comparative substance X, [5R,10S]-(+)-5-methyl-10,11-dihydro-5H-dibenzo[a,d]cycloheptene-5,10-imine maleate], the “Half-life (days) in the retina” value ([1]; retina) was 0.6 days and the “Half-life (days) in the vitreous body” value ([1]; vitreous body) was 0.5 days.
For O=C1OC2(c3ccc(O)cc3Oc3cc(O)ccc32)c2ccccc21 [Fluorescein sodium, fluorescein sodium], the half-life ([2]; retina, restated in hours in the text, read-out: half-life in the retina) was under 0.1 days, the “half-life in the vitreous body” value ([2]; vitreous body, restated in hours in the text) was “less than five hours” and the half-life ([2]; white, 10 μg/ml, retina, injection into the vitreous body, moment method from data measured 1 to 56 days after injection, average of three samples, read-out: Half-life (days) in the retina) was under 0.1 days. The half-life ([2]; white, vitreous body, injection into the vitreous body, moment method from data measured 1 to 35 days after injection, average of three samples, read-out: Half-life (days) in the vitreous body) was under 0.2 days.
